Data: US20100249123A1, “NOVEL BENZAMIDE DERIVATIVES AS MODULATORS OF THE FOLLICLE STIMULATING HORMONE” (ADDEX PHARMA SA, priority 2007, published 2010)

system: not given; assay: not given; conditions: not given

Row | Compound | melting point [°C]
1 | COc1ccc(C(=O)Nc2ccc(C3(C#N)CC3)cc2)cc1OC [Example 2, N-[4-(1-Cyano-cyclopropyl)-phenyl]-3,4-dimethoxy-benzamide] | 204 to 207
2 | CCOc1ccc(C(=O)Nc2ccc(C(C)(C)C#N)cc2)cc1OCC [Example 160, N-[4-(Cyano-dimethyl-methyl)-phenyl]-3,4-diethoxy-benzamide] | 138 to 140
3 | COc1cc(Cl)c(C(=O)Nc2ccc(C(C)(C)C#N)cc2)cc1OC [Example 155, 2-Chloro-N-[4-(cyano-dimethyl-methyl)-phenyl]-4,5-dimethoxy-benzamide] | 142 to 144
4 | COc1ccc(C(=O)Nc2ccc(C3(CNC(=O)c4cscn4)CCCC3)cc2)cc1OC [Example 29, Thiazole-4-carboxylic acid {1-[4-(3,4-dimethoxy-benzoylamino)-phenyl]-cyclopentylmethyl}-amide] | 101 to 104
5 | N#CC1(c2ccc(NC(=O)c3ccc4c(c3)OCCO4)cc2)CCCC1 [Example 3, 2,3-Dihydro-benzo[1,4]dioxin-6-carboxylic acid [4-(1-cyano-cyclopentyl)-phenyl]-amide] | 164 to 167
6 | COc1ccc(C(=O)Nc2ccc(C(C)(C)c3noc(COc4ccccc4)n3)cc2)cc1OC [Example 53, 3,4-Dimethoxy-N-{4-[1-methyl-1-(5-phenoxymethyl-[1,2,4]oxadiazol-3-yl)-ethyl]-phenyl}-benzamide] | 165 to 167
7 | COc1ccc(C(=O)Nc2ccc(C(C)(C)C#N)cc2)cc1OC [Example 1, N-[4-(Cyano-dimethyl-methyl)-phenyl]-3,4-dimethoxy-benzamide] | 139 to 141
8 | COC(=O)NCC(C)(C)c1ccc(NC(=O)c2ccc(OC)c(OC)c2)cc1 [Example 52, {2-[4-(3,4-Dimethoxy-benzoylamino)-phenyl]-2-methyl-propyl}-carbamic acid methyl ester] | 67 to 69
9 | COc1ccc(C(=O)Nc2cccc(C3(C#N)CCCC3)c2)cc1OC [Example 14, N-[3-(1-Cyano-cyclopentyl)-phenyl]-3,4-dimethoxy-benzamide] | 59 to 61
10 | COc1ccc(C(=O)Nc2ccc(C(C)(C)CN3CCOC3=O)cc2)cc1OC [Example 60, N-{4-[1,1-Dimethyl-2-(2-oxo-oxazolidin-3-yl)-ethyl]-phenyl}-3,4-dimethoxy-benzamide] | 190 to 191
11 | COc1cc(C(C)(C)C#N)ccc1NC(=O)c1ccc(OC)c(OC)c1 [Example 75, N-[4-(Cyano-dimethyl-methyl)-2-methoxy-phenyl]-3,4-dimethoxy-benzamide] | 110 to 112
12 | COc1ccc(C(=O)Nc2ccc(C(C)(C)CNC(C)=O)cc2)cc1OC [Example 26, N-[4-(2-Acetylamino-1,1-dimethyl-ethyl)-phenyl]-3,4-dimethoxy-benzamide] | 195 to 197
13 | COc1ccc(C(=O)Nc2ccc(C(C)(C)C#N)cc2)c(Cl)c1OC [Example 153, 2-Chloro-N-[4-(cyano-dimethyl-methyl)-phenyl]-3,4-dimethoxy-benzamide] | 195 to 198
14 | COc1ccc(C(=O)Nc2ccc(C(C)(C)CNC(=O)c3cnc4ccccn34)cc2)cc1OC [Example 161, Imidazo[1,2-a]pyridine-3-carboxylic acid {2-[4-(3,4-dimethoxy-benzoylamino)-phenyl]-2-methyl-propyl}-amide] | 181 to 183

biological target: T1, rat follicle stimulating hormone receptor (rFSHR) (Rattus norvegicus, UniProt P20395); assay: Intracellular cAMP measurement (HTRF) assay, antagonism of EC70 of hFSH; assay type: cell-based; conditions: HEK293 cells expressing rFSHR, 1 ng/ml hFSH (EC70), read-out: Class (IC50 to antagonise an EC70 of FSH receptors agonist such as hFSH)
T1 construct: expressed in transfected cells
T1 sequence (P20395 18-692): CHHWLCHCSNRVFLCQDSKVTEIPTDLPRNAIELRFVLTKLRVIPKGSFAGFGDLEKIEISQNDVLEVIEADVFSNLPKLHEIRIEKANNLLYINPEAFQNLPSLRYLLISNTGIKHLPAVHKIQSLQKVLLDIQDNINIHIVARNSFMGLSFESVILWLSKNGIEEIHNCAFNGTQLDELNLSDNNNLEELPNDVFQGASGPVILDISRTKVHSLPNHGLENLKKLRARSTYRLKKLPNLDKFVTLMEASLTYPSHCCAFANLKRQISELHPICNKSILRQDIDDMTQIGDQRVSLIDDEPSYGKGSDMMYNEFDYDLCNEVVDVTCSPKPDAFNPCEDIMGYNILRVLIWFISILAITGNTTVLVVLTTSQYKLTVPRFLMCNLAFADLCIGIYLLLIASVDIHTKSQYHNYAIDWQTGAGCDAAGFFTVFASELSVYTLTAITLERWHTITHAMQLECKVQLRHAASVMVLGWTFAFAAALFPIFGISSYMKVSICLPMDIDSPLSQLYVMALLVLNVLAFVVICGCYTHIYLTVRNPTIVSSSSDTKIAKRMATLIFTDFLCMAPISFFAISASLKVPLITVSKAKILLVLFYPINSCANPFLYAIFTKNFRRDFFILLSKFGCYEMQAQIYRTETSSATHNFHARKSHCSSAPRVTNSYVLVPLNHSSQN
Text: Intracellular cAMP Measurement Assay
The Intracellular cAMP measurement assay is a functional cell-based assay used to study GPCR function. This method relies on a Time-Resolved Fluorescence (HTRF) assay to measure the cAMP accumulation upon receptor-mediated Gs protein activation in cells expressing recombinant GPCR or in cells from native tissues. In brief, this method is a competitive immunoassay between native cAMP produced by cells and the cAMP labeled with a fluorescent tag. The endogenously produced cAMP competes with exogenous added d2-labelled cAMP for the cAMP binding site on a Eu3+ cryptate labelled anti-cAMP antibody. The d2-labelled cAMP and the Eu^3+ labelled antibody produces a basal fluroresence via HTRF and therefore an intracellular increase in unlabelled cAMP is detected as decrease in this signal. cAMP is one of the most important intracellular mediators. Its concentration in cells can be increased upon binding of many hormones to their receptors. The most studied pathway consists in the release of α-subunit GTP-binding proteins following ligand-receptor interaction, which in turn activates or inhibits the ATP/cAMP conversion function of adenylate cyclase enzyme. cAMP is then involved in many complex regulatory processes such as protein kinase activation or ion channel gating. This method is widely used to study receptor activation of G protein in cells over-expressing GPCRs or in native cells, including FSH receptors expressing cells (Gabriel et al., Assay Drug Dev. Technol., 1, 291-303, 2003).
Transfection and cell culture: The cDNA encoding the rat follicle stimulating hormone receptor (rFSHR), (accession number NM_199237, NCBI Nucleotide database browser) was subcloned into an expression vector containing also the hygromycin resistance gene. Transfection of this vector into HEK293 cells with PolyFect reagent (Qiagen) according to supplier's protocol, and hygromycin treatment allowed selection of antibiotic resistant cells which had integrated stably one or more copies of the plasmid. Positive cellular clones expressing rFSHR were identified in a functional assay measuring cAMP production in cells following stimulation by addition of purified human follicle stimulating hormone (hFSH).
HTRF cAMP assay: On the day of the experiment, cells were detached from the Petri dish and distributed in a low volume, black-walled 384-well plate at a density of 5,000 cells/well in an assay buffer containing 1 mM IBMX to prevent cAMP degradation by cytoplasmic phosphodiesterases. The determination of the cAMP accumulation was performed using an HTRF assay (Trinquet et al., Anal. Biochem., 358, 126-135, 2006). Briefly, cells were incubated for 3 min in the presence of increasing concentrations of negative allosteric modulators (from 1 nM to 60 μM) and then 30 min in the presence of 1 ng/ml of hFSH, an agonist of rat FSH receptor, that has been determined in previous experiments to correspond to the EC70, a concentration that gives 70% of the maximal response of the agonist, and is in accordance with published data (Fox et al., Mol. Endocrin., 15, 378-389, 2001). […] Cells were then lysed by adding the HTRF assay components, the europium cryptate-labeled anti-cAMP antibody, and the XL665-labeled cAMP analog, previously diluted in a HEPES buffer (50 mM, pH 7.0) containing 0.8 M potassium fluoride, 0.2% (w/v) BSA, and 1% (v/v) Triton X-100, a percentage of detergent that ensure complete cell lysis. Assay was then incubated for 1 hr at room temperature, and HTRF signal was measured after excitation at 337 nm, and dual emission at 620 and 665 nm, using a RubyStar fluorimeter (BMG Labtechnologies). Moreover, the fluorescence ratio of an appropriate range of known concentrations of cAMP standards was also included on each assay plate to produce a standard cAMP curve. […]

Row | Compound | IC50 [nM]
15 | COc1ccc(C(=O)Nc2ccc(C(C)(CO)CNC(=O)c3cnc4ccccn34)cc2)cc1OC (stereo not shown) [Example 212, Imidazo[1,2-a]pyridine-3-carboxylic acid {2-[4-(3,4-dimethoxy-benzoylamino)-phenyl]-3-hydroxy-2-methyl-propyl}-amide] | ≥ 1000
16 | COc1ccc(C(=O)Nc2ccc(C(C)(C)CCNC(=O)c3nc4cccnc4[nH]3)cc2)cc1OC [Example 196, 3H-Imidazo[4,5-b]pyridine-2-carboxylic acid {3-[4-(3,4-dimethoxy-benzoylamino)-phenyl]-3-methyl-butyl}-amide] | 150 to 400
17 | COc1ccc(C(=O)Nc2ccc(C(C)(C)C#N)c(-c3cnn(C)c3)c2)cc1OC [Example 205, N-[4-(Cyano-dimethyl-methyl)-3-(1-methyl-1H-pyrazol-4-yl)-phenyl]-3,4-dimethoxy-benzamide] | 400 to 1000
18 | COc1ccc(C(=O)Nc2ccc(C(C)(C)CNC(=O)c3c[nH]c4ccccc34)cc2)cc1OC [Example 101, 1H-Indole-3-carboxylic acid{2-[4-(3,4-dimethoxy-benzoylamino)-phenyl]-2-methyl-propyl}-amide] | 150 to 400
19 | COc1ccc(C(=O)Nc2ccc(C(C)(C)CNC(=O)c3ccco3)cc2)cc1OC [Example 32] | 150 to 400
20 | COc1ccc(C(=O)Nc2ccc(C(C)(C)CNC(=O)c3c[nH]c4ncc(F)cc34)cc2)cc1OC [Example 216] | 150 to 400
21 | COc1ccc(C(=O)Nc2ccc(C(C)(C)C#N)c(N3CCOCC3)c2)cc1OC [Example 204, N-[4-(Cyano-dimethyl-methyl)-3-morpholin-4-yl-phenyl]-3,4-dimethoxy-benzamide] | ≥ 1000
22 | COc1ccc(C(=O)Nc2ccc(C(C)(C)CCNC(C)=O)c(-c3cccnc3)c2)cc1OC [Example 221, N-(4-(4-acetamido-2-methylbutan-2-yl)-3-(pyridin-3-yl)-phenyl)-3,4-dimethoxybenzamide] | 400 to 1000
23 | COc1ccc(C(=O)Nc2ccc(C(C)(C)CNC(=O)c3cn4cccnc4n3)cc2)cc1OC [Example 186] | ≥ 1000
24 | COc1ccc(C(=O)Nc2ccc(C(C)(C)CNC(=O)c3nn(C)c4ccccc34)c(C)c2)cc1OC [Example 110, 1-Methyl-1H-indazole-3-carboxylic acid{2-[4-(3,4-dimethoxy-benzoylamino)-2-methyl-phenyl]-2-methyl-propyl}-amide] | 150 to 400
25 | CCc1cc(NC(=O)c2ccc(OC)c(OC)c2)ccc1C(C)(C)C#N [Example 133, N-[4-(Cyano-dimethyl-methyl)-3-ethyl-phenyl]-3,4-dimethoxy-benzamide] | < 150
26 | COc1ccc(C(=O)Nc2ccc(C(C)(C)CNC(=O)c3ccccn3)cc2)cc1OC [Example 74] | 150 to 400
27 | COCCn1cc(C(=O)NCC(C)(C)c2ccc(NC(=O)c3ccc(OC)c(OC)c3)cc2)c2cc(F)ccc21 [Example 191, 5-Fluoro-1-(2-methoxy-ethyl)-1H-indole-3-carboxylic acid {2-[4-(3,4-dimethoxy-benzoylamino)-phenyl]-2-methyl-propyl}-amide] | 150 to 400
28 | COc1ccc(C(=O)Nc2ccc(C(C)(C)CNC(=O)c3c[nH]c4cnccc34)cc2)cc1OC [Example 215] | 400 to 1000
